Source: paper PMC3804415 (Bioorganic & medicinal chemistry, 2013)

Molecular target: T1, human QR2 (Homo sapiens, UniProt P16083)
T1 sequence (P16083 1-231): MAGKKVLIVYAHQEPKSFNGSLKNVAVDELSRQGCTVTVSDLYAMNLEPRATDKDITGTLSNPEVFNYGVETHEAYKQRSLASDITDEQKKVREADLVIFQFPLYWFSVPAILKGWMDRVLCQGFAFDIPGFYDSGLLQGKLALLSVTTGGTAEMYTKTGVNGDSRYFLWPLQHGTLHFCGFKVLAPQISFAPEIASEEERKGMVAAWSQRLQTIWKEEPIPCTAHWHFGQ
Assay: Steady-state kinetic assay of QR2 inhibition
Assay type: biochemical
Conditions: for average percent inhibition of QR2: at 100 μM inhibitor; for inhibition at 100 µM: read-out: average percent inhibition of QR2

| SMILES | average percent inhibition of QR2 | inhibition at 100 µM [%] |
| --- | --- | --- |
| COc1ccc(/C(C#N)=C/c2cc(OC(C)C)cc(OC(C)C)c2)cc1 [Analogue 4c, (Z)-3-(3,5-diisopropoxyphenyl)-2-(4-methoxyphenyl)acrylonitrile] | – | ≤ 20 |
| CC(C)Oc1cc(/C=C(\C#N)c2ccc(O)cc2)cc(OC(C)C)c1 [Analogue 4a, (Z)-3-(3,5-diisopropoxyphenyl)-2-(4-hydroxyphenyl)acrylonitrile] | – | ≤ 20 |
| CN(C)c1ccc(NC(=O)c2ccc(O)cc2)cc1 [Analogue 8f, N-(4-(dimethylamino)phenyl)-4-hydroxybenzamide] | eliminates inhibition of QR2 | – |

The remaining lines, values ahead:

| average percent inhibition of QR2 | inhibition at 100 µM [%] | SMILES |
| --- | --- | --- |
| no inhibition of QR2 | – | COc1cc(OC)cc(C(=O)Nc2ccc3ccccc3c2)c1 [Analogue 8p, 3,5-dimethoxy-N-(naphthalen-2-yl)benzamide] |
| eliminates inhibition of QR2 | – | CN(C)c1ccc(C(=O)Nc2cc(O)cc(O)c2)cc1 [Analogue 8k, N-(3,5-dihydroxyphenyl)-4-(dimethylamino)benzamide] |
